Several values for one entry are separate records, joined by “and”; a condition that tells them apart may be missing. Identical values can stand only once.
Tested on: A875 NT cells
Assay: Wound healing cell motility assay, A875 NT
Type: cell-based, human
Conditions: for Wound area, Mean: N=3; for Wound area (Fold), Mean / Wound area (Fold), individual replicates: 10uM; for Wound area (Fold): A875 NT
Protocol: For wound healing assay, cells were grown until confluency and subjected to a wound across the cell mono-layer. Cells were then incubated with serum-free media either with DMSO or a small molecule (with or without 5 µM Q_VD_poH) and imaged at specific time-points. Cell migration is reflected as fold change in wound area over time.

[1] = 5μM Q_VD_poH + 10μM Div17E5, 0 hours
[2] = 5μM Q_VD_poH + 10μM Div17E5, 3 hours
[3] = 5μM Q_VD_poH + 10μM Div17E5, 6 hours
[4] = 5μM Q_VD_poH + 10μM Div17E5, 9 hours
[5] = 5μM Q_VD_poH + 10μM Div17E5, 12 hours
[6] = 5μM Q_VD_poH + 10μM Div17E5, 15 hours
[7] = 5μM Q_VD_poH + 10μM Div17E5, 18 hours
[8] = 5μM Q_VD_poH + 10μM Div17E5, 21 hours
[9] = 5μM Q_VD_poH + 10μM Div17E5, 24 hours

## Oc1ccc(-c2cncc(Nc3ccc(Br)c(Cl)c3)n2)cc1 [Div17E5]
  cell motility (wound healing): significantly impaired motility
[1]
  Wound area, n1-n3: 1.151 Fold and 0.989 Fold and 0.859 Fold
  Wound area, Mean: 1.000 Fold
[2]
  Wound area, n1-n3: 0.948 Fold and 1.003 Fold and 1.022 Fold
  Wound area, Mean: 0.991 Fold
[3]
  Wound area, n1-n3: 0.944 Fold and 0.988 Fold and 1.047 Fold
  Wound area, Mean: 0.993 Fold
[4]
  Wound area, n1-n3: 0.936 Fold and 0.934 Fold and 1.001 Fold
  Wound area, Mean: 0.957 Fold
[5]
  Wound area, n1-n3: 0.937 Fold and 0.894 Fold and 1.002 Fold
  Wound area, Mean: 0.944 Fold
[6]
  Wound area, n1-n3: 0.938 Fold and 0.874 Fold and 0.985 Fold
  Wound area, Mean: 0.932 Fold
[7]
  Wound area, n1-n3: 0.920 Fold and 0.852 Fold and 0.976 Fold
  Wound area, Mean: 0.916 Fold
[8]
  Wound area, n1-n3: 0.922 Fold and 0.829 Fold and 0.962 Fold
  Wound area, Mean: 0.904 Fold
[9]
  Wound area, n1-n3: 0.916 Fold and 0.831 Fold and 0.939 Fold
  Wound area, Mean: 0.895 Fold
10 µM
  wound healing assay, comparison of Div17E5, MS_18 and MS_63: the better of the three
10μM Div17E5, 0 hours
  Wound area, Mean: 1.000 Fold
10μM Div17E5, 3 hours
  Wound area, n1-n3: 1.026 Fold and 0.986 Fold and 1.104 Fold
  Wound area, Mean: 1.039 Fold
10μM Div17E5, 6 hours
  Wound area, n1-n3: 0.988 Fold and 0.956 Fold and 1.073 Fold
  Wound area, Mean: 1.006 Fold
10μM Div17E5, 9 hours
  Wound area, n1-n3: 0.922 Fold and 0.923 Fold and 1.017 Fold
  Wound area, Mean: 0.954 Fold
10μM Div17E5, 12 hours
  Wound area, n1-n3: 0.909 Fold and 0.918 Fold and 0.979 Fold
  Wound area, Mean: 0.935 Fold
10μM Div17E5, 15 hours
  Wound area, n1-n3: 0.913 Fold and 0.881 Fold and 0.951 Fold
  Wound area, Mean: 0.915 Fold
10μM Div17E5, 18 hours
  Wound area, n1-n3: 0.881 Fold and 0.866 Fold and 0.915 Fold
  Wound area, Mean: 0.887 Fold
10μM Div17E5, 21 hours
  Wound area, n1-n3: 0.886 Fold and 0.863 Fold and 0.915 Fold
  Wound area, Mean: 0.888 Fold
10μM Div17E5, 24 hours
  Wound area, n1-n3: 0.865 Fold and 0.854 Fold and 0.889 Fold
  Wound area, Mean: 0.870 Fold
0 hours
  Wound area (Fold), Mean: 1 Fold
  Wound area (Fold), individual replicates: 1.000 Fold
3 hours
  Wound area (Fold), Mean: 0.931 Fold
  Wound area (Fold), individual replicates: 0.928 Fold and 0.933 Fold
6 hours
  Wound area (Fold), Mean: 0.912 Fold
  Wound area (Fold), individual replicates: 0.898 Fold and 0.926 Fold
9 hours
  Wound area (Fold), Mean: 0.866 Fold
  Wound area (Fold), individual replicates: 0.856 Fold and 0.878 Fold
12 hours
  Wound area (Fold), Mean: 0.895 Fold
  Wound area (Fold), individual replicates: 0.846 Fold and 0.944 Fold
15 hours
  Wound area (Fold), Mean: 0.862 Fold
  Wound area (Fold), individual replicates: 0.814 Fold and 0.91 Fold
18 hours
  Wound area (Fold), Mean: 0.863 Fold
  Wound area (Fold), individual replicates: 0.826 Fold and 0.899 Fold
21 hours
  Wound area (Fold), Mean: 0.869 Fold
  Wound area (Fold), individual replicates: 0.805 Fold and 0.934 Fold
24 hours
  Wound area (Fold), Mean: 0.869 Fold
  Wound area (Fold), individual replicates: 0.812 Fold and 0.927 Fold
1uM, 0 h, Mean
  Wound area (Fold): 1.000 Fold
1uM, 0 h, n1
  Wound area (Fold): 1.026 Fold
1uM, 0 h, n2
  Wound area (Fold): 0.960 Fold
1uM, 0 h, n3
  Wound area (Fold): 1.014 Fold
1uM, 3 h, Mean
  Wound area (Fold): 0.953 Fold
1uM, 3 h, n1
  Wound area (Fold): 0.950 Fold
1uM, 3 h, n2
  Wound area (Fold): 0.945 Fold
1uM, 3 h, n3
  Wound area (Fold): 0.963 Fold
1uM, 6 h, Mean
  Wound area (Fold): 0.896 Fold
1uM, 6 h, n1
  Wound area (Fold): 0.897 Fold
1uM, 6 h, n2
  Wound area (Fold): 0.884 Fold
1uM, 6 h, n3
  Wound area (Fold): 0.907 Fold
1uM, 9 h, Mean
  Wound area (Fold): 0.858 Fold
1uM, 9 h, n1
  Wound area (Fold): 0.855 Fold
1uM, 9 h, n2
  Wound area (Fold): 0.847 Fold
1uM, 9 h, n3
  Wound area (Fold): 0.872 Fold
1uM, 12 h, Mean
  Wound area (Fold): 0.818 Fold
1uM, 12 h, n1
  Wound area (Fold): 0.819 Fold
1uM, 12 h, n2
  Wound area (Fold): 0.796 Fold
1uM, 12 h, n3
  Wound area (Fold): 0.839 Fold
1uM, 15 h, Mean
  Wound area (Fold): 0.788 Fold
1uM, 15 h, n1
  Wound area (Fold): 0.792 Fold
1uM, 15 h, n2
  Wound area (Fold): 0.758 Fold
1uM, 15 h, n3
  Wound area (Fold): 0.814 Fold
1uM, 18 h, Mean
  Wound area (Fold): 0.765 Fold
1uM, 18 h, n1
  Wound area (Fold): 0.775 Fold
1uM, 18 h, n2
  Wound area (Fold): 0.730 Fold
1uM, 18 h, n3
  Wound area (Fold): 0.790 Fold
1uM, 21 h, Mean
  Wound area (Fold): 0.730 Fold
1uM, 21 h, n1
  Wound area (Fold): 0.735 Fold
1uM, 21 h, n2
  Wound area (Fold): 0.696 Fold
1uM, 21 h, n3
  Wound area (Fold): 0.758 Fold
1uM, 24 h, Mean
  Wound area (Fold): 0.705 Fold
1uM, 24 h, n1
  Wound area (Fold): 0.708 Fold
1uM, 24 h, n2
  Wound area (Fold): 0.669 Fold
1uM, 24 h, n3
  Wound area (Fold): 0.737 Fold
2uM, 0 h, Mean
  Wound area (Fold): 1.000 Fold
2uM, 0 h, n1
  Wound area (Fold): 0.9445 Fold
2uM, 0 h, n2
  Wound area (Fold): 1.024 Fold
2uM, 0 h, n3
  Wound area (Fold): 1.031 Fold
2uM, 3 h, Mean
  Wound area (Fold): 0.936 Fold
2uM, 3 h, n1
  Wound area (Fold): 0.9336 Fold
2uM, 3 h, n2
  Wound area (Fold): 0.9313 Fold
2uM, 3 h, n3
  Wound area (Fold): 0.9444 Fold
2uM, 6 h, Mean
  Wound area (Fold): 0.874 Fold
2uM, 6 h, n1
  Wound area (Fold): 0.8802 Fold
2uM, 6 h, n2
  Wound area (Fold): 0.851 Fold
2uM, 6 h, n3
  Wound area (Fold): 0.8894 Fold
2uM, 9 h, Mean
  Wound area (Fold): 0.841 Fold
2uM, 9 h, n1
  Wound area (Fold): 0.8687 Fold
2uM, 9 h, n2
  Wound area (Fold): 0.7852 Fold
2uM, 9 h, n3
  Wound area (Fold): 0.8693 Fold
2uM, 12 h, Mean
  Wound area (Fold): 0.798 Fold
2uM, 12 h, n1
  Wound area (Fold): 0.822 Fold
2uM, 12 h, n2
  Wound area (Fold): 0.7423 Fold
2uM, 12 h, n3
  Wound area (Fold): 0.8308 Fold
2uM, 15 h, Mean
  Wound area (Fold): 0.764 Fold
2uM, 15 h, n1
  Wound area (Fold): 0.7994 Fold
2uM, 15 h, n2
  Wound area (Fold): 0.707 Fold
2uM, 15 h, n3
  Wound area (Fold): 0.7869 Fold
2uM, 18 h, Mean
  Wound area (Fold): 0.723 Fold
2uM, 18 h, n1
  Wound area (Fold): 0.7549 Fold
2uM, 18 h, n2
  Wound area (Fold): 0.6745 Fold
2uM, 18 h, n3
  Wound area (Fold): 0.7404 Fold
2uM, 21 h, Mean
  Wound area (Fold): 0.674 Fold
2uM, 21 h, n1
  Wound area (Fold): 0.6977 Fold
2uM, 21 h, n2
  Wound area (Fold): 0.6158 Fold
2uM, 21 h, n3
  Wound area (Fold): 0.7086 Fold
2uM, 24 h, Mean
  Wound area (Fold): 0.637 Fold
2uM, 24 h, n1
  Wound area (Fold): 0.6671 Fold
2uM, 24 h, n2
  Wound area (Fold): 0.5815 Fold
2uM, 24 h, n3
  Wound area (Fold): 0.6623 Fold
Low micromolar and submicromolar concentrations
  wound healing assay: totally inactive

— publication PMC12514245, “Impaired migration and lung invasion of human melanoma by a novel small molecule targeting the transmembrane domain of death receptor p75^NTR” (EMBO Molecular Medicine, 2025)
